Where “and” joins values, the source holds several entries; their conditions need not be identical. Equal entries are not always repeated.
Columns and labels:
Src = assay: Western blot of Src activation (pSrc/Src) in bioprinted U251 cells; assay type: cell-based, human; settings: bioprinted U251, 24 h, FBS-free DMEM; for Active form of Src, pSrc (Tyr416), vs. control: 1 or 10 µM, Western blot
Procedure: A solution of 2% alginate and 8% gelatin (bio-ink) made up the hydrogel utilized for bioprinting. After 15 min of UV light exposure, the powders were dissolved in sterile DPBS in a magnetic stirrer set at 50 °C with laminar flow. After being made, bioink was put in sterile syringes and kept at 4 °C until it was needed. Bioink had been equilibrated at 37 °C prior to the bioprinting process. After that, 2.7 mL of bioink was added to 20 × 10^6 cells that had been resuspended in 300 µL of growth media. Lastly, a disposable cartridge containing a cell/hydrogel suspension was equilibrated in a temperature-controlled printhead for 30 min at 29 °C. The BIO-X bioprinter (Cellink, Gothenburg, Sweden) was used to print in a 12-well plate at a speed of 5 mm/s and a dispensing pressure of 50 kPa, while the temperature was adjusted to 18 °C. Before adding culture media, three-dimensional constructs were crosslinked using CaCl2 for ten minutes and BaCl2 for three minutes. After 8 days, 3D structures, after evaluating cell viability, were treated for 72 h with SI306 and SI306-PD2 at selected concentrations and in different conditions: in complete DMEM high-glucose growth medium and DMEM-high glucose growth medium without FBS (w/o). Fiji ImageJ software (version 2.16.0/1.54p, https://imagej.net/software/fiji/downloads, accessed on 20 May 2025) was used to perform measurements of 3D models’ diameters on images acquired using phase contrast microscopy. A hemocytometer was used to set a scale for normalized measures and to convert real optic distance in pixels. At least five different optical fields were acquired, and the diameter was calculated for at least 100 different cell aggregates in each experimental point.
Cells were subjected to total protein extraction using a ready-to-use cell lysis buffer (Euroclone, Milan, Italy), supplemented by a Protease/Phosphatase Inhibitor Cocktail (Euroclone), diluted 1:100. Cell lysis was further facilitated by three cycles of sonication in an ultrasonic bath (JSP, Los Angeles, CA, USA). […]

[1] = PAMPA assay, gastrointestinal (GI) membrane; assay type: in vitro ADME; settings: four hours; for Papp at 4 h: pH 7.4, room temperature, read-out: Apparent permeability Papp; for Membrane retention MR: room temperature
Procedure: After being first dissolved in DMSO, the compounds were diluted 1:1 v/v using phosphate buffer (PBS 10 mM, pH 7.4). […] The gastrointestinal (GI) and blood–brain barrier (BBB) phospholipidic bilayers were mimicked by covering each well of the filter plate with either a 10%w/v CHCl3/dodecane brain polar lipid solution or a 1%w/v L-α-phosphatidylcholine solution (PC) in dodecane. After placing a DMSO/PBS 1:1v/v combination solution in the acceptor plate, the sandwich was gently shaken and incubated at room temperature for four hours. Samples were collected from the upper and bottom plates at the end time point, and the LC-UV/MS method was used for analysis. As previously reported, the apparent permeability (Papp cm/s × 10^−6) was quantified.

[2] = Stability/release in fetal bovine serum (FBS); settings: for Stability (% unmodified compound): FBS, 37 °C; for half-life: bovine, fetal bovine serum (absolute FBS), pH 7.4
[3] = tested on: U87 glioblastoma cell line; assay: 2D cell viability assay (PrestoBlue), U87; assay type: cell-based; settings: Homo sapiens, 72 h, U87 2D culture
Procedure: The human glioblastoma cell line U87 MG (U87) was originally isolated from a patient with a malignant glioma (ECACC). The human glioblastoma cell line U251 MG (U251) was derived from a patient with a malignant glioblastoma (ECACC). DMEM high-glucose growth medium (Euroclone, Milan, Italy), supplemented with 10% FBS (Euroclone), 200 mM L-glutamine (Euroclone), 100 IU/mL penicillin, and 100 µg/mL streptomycin (Euroclone) comprised the culture medium used for cell propagation at a controlled temperature and atmosphere, at 37 °C, […], and 5% CO2. Cell lines underwent regular testing for mycoplasma using the PCR method and identity verification was performed using DNA profiling.
For the treatment of 2D cultures, U87 and U251 cell lines were initially seeded at a density of 2.5 × 10^4 cells/mL in a 24 multiwell with a complete DMEM high-glucose growth medium. The viability test was started 24 h after cell plating and performed for 72 h. According to the experimental plan, the tests were performed in the presence of a complete DMEM high-glucose growth medium or, to avoid the serum-dependent degradation of prodrug, in an FBS-free DMEM high-glucose growth medium that was supplemented with 200 mM L-glutamine, 100 IU/mL penicillin, and 100 µg/mL streptomycin. Cell viability in 2D and 3D models was assessed using the cell-permeable resazurin-based solution PrestoBlue (Thermo Fisher, Waltham, MA, USA). After incubating the cells in a 1:10 ratio with the colorimetric reagent for two hours in the dark, the spectrophotometer readings at 570 and 600 nm were utilized as a relative indicator for cell viability.
Data were imported into Excel or GraphPad Prism software (version 6.01) and elaborated as the mean ± standard deviation (SD) of at least three independent experiments. The calculation of IC50 values with 95% confidence intervals was performed in GraphPad Prism software using a parameter nonlinear fit of the log-dose vs. response elaboration of data. The p value of the log-dose vs. response was calculated with a two-tailed Mann–Whitney test for unpaired data. The statistical significance between two series of measures, including stability and PAMPA (both GI and BBB) experiments, was calculated with the parametric Student t test, considering a significant p value lower than 0.05.

Row | Structure (SMILES) | pSrc/Src ratio normalized to control, prodrug vs. SI306 (Src; 10 µM, densitometric analysis) | Active form of Src, pSrc (Tyr416), vs. control (Src) | Papp at 4 h [1] [×10⁻⁶ cm/s] | Membrane retention MR [1] [%] | Stability (% unmodified compound) ([2]; time 0 h) [%] | Stability (% unmodified compound) ([2]; time 0.083 h) [%] | Stability (% unmodified compound) ([2]; time 0.25 h) [%] | Stability (% unmodified compound) ([2]; time 0.5 h) [%] | Stability (% unmodified compound) ([2]; time 2 h) [%] | Stability (% unmodified compound) ([2]; time 4 h) [%] | Stability (% unmodified compound) ([2]; time 6 h) [%] | half-life [2] [h] | IC50 ([3]; 10% FBS-DMEM) [nM] | IC50 ([3]; FBS-free DMEM (w/o)) [nM] | Stability (% unmodified compound) ([2]; time 1 h) [%] | Stability (% unmodified compound) ([2]; time 24 h)
1 | O=C(OCCOCCO)N(c1cccc(Br)c1)c1nc(SCCN2CCOCC2)nc2c1cnn2CC(Cl)c1ccccc1 (centres unmarked) [SI306-PD2, 2-(2-Hydroxyethoxy)ethyl (3-Bromophenyl)(1-(2-chloro-2-phenylethyl)-6-((2-morpholinoethyl)thio)-1H-pyrazolo[3,4-d]pyrimidin-4-yl)carbamate] | higher ability of the prodrug to inhibit the generation of phosphorylated Src than the SI306 compound | evident reduction in the active form of Src, starting from 1 µM | 18.4 ± 2.32 | 5.26 ± 2.70 | 100.06 ± 1.13 | 93.64 ± 2.06 | 92.56 ± 3.74 | 89.39 ± 2.87 | 79.26 ± 0.34 | 64.90 ± 1.21 | 56.13 ± 2.72 | 10.7 | 1620 | 290 |  | 
2 | ClC(Cn1ncc2c(Nc3cccc(Br)c3)nc(SCCN3CCOCC3)nc21)c1ccccc1 (centres unmarked) [SI306, N-(3-bromophenyl)-1-(2-chloro-2-phenylethyl)-6-((2-morpholinoethyl)thio)-1H-pyrazolo[3,4-d]pyrimidin-4-amine] |  | evident reduction in the active form of Src, starting from 1 µM | 5.93 ± 0.38 | 60.09 ± 3.38 | 100.24 ± 2.48 | 99.67 ± 0.21 | 98.42 ± 1.19 | 98.49 ± 2.18 | 93.95 ± 2.42 | 90.92 ± 2.68 | 90.51 ± 3.24 | > 100 | 3070 | 270 | 97.91 ± 1.79 | 90.02% and 90.02 ± 2.28 %

— PMC12195707, “Evaluation of Antitumoral Activity in a 3D Cell Model of a Src Inhibitor Prodrug for Glioblastoma Treatment” (Pharmaceutics, 2025)
